# Results from PubChem BioAssay (NCI).
#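 Results reflect a 48-hour exposure of cells in 96-well plates to compound at five concentrations. Here, GI50 denotes the concentration required for 50% inhibition of growth. The concentration for full growth arrest is given as TGI.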 Where a SMILES comes first, the peptide text is derived from it. [ ]: non-standard residue; d: D form. Phe(4-Cl) = N[CH](Cc1ccc(Cl)cc1)C(=O)O
# Assays:
# Test in all cases: DTP human tumour cell line panel, 48 h
# [1] = test system: A549 NSCLC
# [2] = test system: HCC-2998 colon
# [3] = test system: HCT-116 colon
# [4] = test system: HOP-62 NSCLC
# [5] = test system: HOP-92 NSCLC
# [6] = test system: OVCAR-8 ovarian
# [7] = test system: UACC-62 melanoma
# [8] = test system: CCRF-CEM leukemia
# [9] = test system: KM12 colon
# [10] = test system: MOLT-4 leukemia
Compound,TGI [1] [µM],TGI [2] [µM],TGI [3] [µM],TGI [4] [µM],TGI [5] [µM],TGI [6] [µM],TGI [7] [µM],TGI [8] [µM],TGI [9] [µM],TGI [10] [µM],GI50 [1] [µM],GI50 [8] [µM],GI50 [2] [µM],GI50 [3] [µM],GI50 [4] [µM],GI50 [9] [µM],GI50 [10] [µM],GI50 [6] [µM],GI50 [7] [µM],GI50 [5] [µM]
O=C1NC(=O)c2ccc([N+](=O)[O-])c3cccc1c23,43.9,52.3,23.9,49.2,37.2,26.1,27,–,–,–,–,–,–,–,–,–,–,–,–,–
Nc1ccc(/C=C/c2ccnc3ccccc23)cc1,71.4,57.7,42.4,41.5,50.9,88.2,56.9,40.7,49.3,38.7,–,–,–,–,–,–,–,–,–,–
CC(=O)[CH-]C(=O)c1ccccc1.CC(=O)[CH-]C(=O)c1ccccc1.O=C([O-])c1ccc([O-])cc1.O=C([O-])c1ccc([O-])cc1.[Ti+4],> 100,> 100,> 100,> 100,–,> 100,> 100,62.8,90.1,79.3,69.1,15.4,46.3,41.4,35.1,25,23.8,46.5,37.2,–
C[N+](C)(C)CC1CCCC(C[N+](C)(C)C)C1=O (stereo not given),40.6,8.63,2.23,43.3,1.17,1.15,10.9,1.28,12.5,3.85,–,–,–,–,–,–,–,–,–,–
CN(C)CCCn1c2c(c3ccccc3c1=O)C(=O)c1ccccc1-2,3.14,–,4.34,6.61,5.59,1.34,1.96,28.9,17.7,0.746,0.65,1.44,–,0.578,1.74,3.6,0.276,0.336,0.516,0.421
CCCCCCCCCCCCCC1CCC(CC)N1 (stereo not given),36.2,18.7,29.6,17.9,31.3,39.1,17.1,18.2,32.4,30.6,–,–,–,–,–,–,–,–,–,–
CN(C)CCNC(=O)c1cccc(C(=O)Nc2ccccc2)c1[N+](=O)[O-],> 100,> 100,> 100,> 100,–,> 100,> 100,> 100,> 100,> 100,–,–,–,–,–,–,–,–,–,–
CC(=O)OC1Oc2ccccc2-c2oc(=O)c(-c3cc4ccc(N(C)C)cc4oc3=O)cc21 (stereo not given),36.9,–,21.7,25.4,23.3,37.7,29.5,24.2,30.6,18.1,12.5,2.89,–,1.42,4.63,13.7,2.53,10.3,14.3,4.8
CC[O-].CC[O-].O=C1c2ccccc2C(=O)c2c(O)ccc([O-])c21.O=C1c2ccccc2C(=O)c2c(O)ccc([O-])c21.[Ti+4],> 100,–,> 100,> 100,–,> 100,> 100,> 100,> 100,> 100,–,–,–,–,–,–,–,–,–,–
O=C(CCl)Nc1ccc(Cl)cc1,26.9,24.9,10.2,3.91,20.7,> 100,17,–,21,–,11.2,–,11.3,2.7,2.01,8.06,–,4.6,3.6,6.67
O=S(=O)(/N=S(/Nc1ccccc1)C(Cl)Cl)c1ccccc1 (stereo not given),> 100,–,> 100,> 100,> 100,> 100,> 100,> 100,> 100,> 100,–,–,–,–,–,–,–,–,–,–
Fc1cc(F)c(COc2cc(Cn3cnc4c(Cl)nc(Cl)nc43)ccc2C23CC4CC(CC(C4)C2)C3)cc1F,76.7,33.5,28.5,31.2,32.1,38.4,25.2,4.52,32.6,–,28,1.91,18.7,15.2,17.4,17.2,–,18,12.5,17.6
COc1ccc(N2C(=O)C3c4[nH]c5ccc(C)cc5c4C4CCC(C(C)(C)C)CC4C3C2=O)cc1 (stereo not given),> 100,> 100,40.5,33.4,–,25.1,29.7,16.7,> 100,34.9,–,–,–,–,–,–,–,–,–,–
CC(O)C(NC(=O)C(Cc1ccccc1)NC(=O)C(NC(=O)C(CCCCN)NC(=O)C(Cc1c[nH]c2ccccc12)NC(=O)C(Cc1ccc(O)cc1)NC(=O)C(Cc1ccc(Cl)cc1)NC(=O)C(N)Cc1ccccc1)C(C)O)C(N)=O (stereo not given) (H-F[Phe(4-Cl)]YWKTFT-NH2; configuration not given here),36,73.7,49,38.5,–,67.5,39.8,29.3,33.5,62.2,–,–,–,–,–,–,–,–,–,–
O=C(O)CN(c1ccccc1)S(=O)(=O)c1ccccc1[N+](=O)[O-],> 100,–,–,–,> 100,> 100,> 100,> 100,> 100,> 100,–,–,–,–,–,–,–,–,–,–
NC(=S)N/N=C/c1ccc(OC(=O)COc2ccc(Cl)cc2)cn1,> 100,> 100,> 100,91.1,–,> 100,60,> 100,> 100,> 100,34.5,2.73,8.46,4.93,14.6,3.18,2.26,3.63,4.17,–
c1ccc(C2=NNC3c4ccccc4-c4ccccc4N3C2)cc1 (stereo not given),> 100,–,> 100,> 100,> 100,> 100,35.2,–,> 100,56.9,–,–,–,–,–,–,–,–,–,–
O=C1c2ccccc2-c2c1c1ccccc1c(=O)n2Cc1ccccc1,> 100,–,> 100,> 100,> 100,> 100,> 100,> 100,> 100,> 100,–,–,–,–,–,–,–,–,–,–

Compound,TGI [1] [µM],TGI [2] [µM],TGI [3] [µM],TGI [4] [µM],TGI [5] [µM],TGI [6] [µM],TGI [7] [µM],TGI [8] [µM],TGI [9] [µM],TGI [10] [µM],GI50 [1] [µM],GI50 [8] [µM],GI50 [2] [µM],GI50 [3] [µM],GI50 [4] [µM],GI50 [9] [µM],GI50 [10] [µM],GI50 [6] [µM],GI50 [7] [µM],GI50 [5] [µM]
Cc1cc(C)nc(NS(=O)(=O)c2ccc(Nc3c4ccccc4nc4c(C(=O)Nc5ccc(S(=O)(=O)Nc6cc(C)on6)cc5)cccc34)cc2)n1,> 100,30.9,31.2,44.2,39.5,39.3,34,–,35.7,64,–,–,–,–,–,–,–,–,–,–
Cc1ccc(Nc2nc3c(s2)C(=O)c2ccccc2C3=O)c(C)c1,37.6,31.8,–,30.5,22.9,35.2,29.5,25.8,33,23.4,–,–,–,–,–,–,–,–,–,–
CCOC(=O)CN=c1nc(SC)sc2c(C(=O)OCC)nc(Sc3ccccc3)n12,–,> 100,> 100,> 100,> 100,> 100,> 100,> 100,> 100,–,–,–,–,–,–,–,–,–,–,–
O=C1c2c(Br)sc(Br)c2C(NC(=O)C(F)(F)F)C1O (stereo not given),58.5,32.6,32.6,–,35.9,44.1,40.8,56.3,91.6,> 100,–,–,–,–,–,–,–,–,–,–
CCOC(=O)c1cc(/C(=N\O)c2cc(OC)c(OC)c(OC)c2)n2cc(C)cc(C)c12,> 100,> 100,3.93,5.45,7.08,> 100,–,–,> 100,–,3.99,–,5.78,1.86,1.73,2.31,–,5.38,–,2.26
CCN(CC)CCCC(C)Nc1c(C)cnc2cc(Cl)c(C)cc12 (stereo not given),30,–,13.6,32.9,3.87,43.5,11.1,34.8,28.6,8.27,15.1,8.66,–,2.56,18.2,13.8,0.845,11.4,3.44,0.288
O=c1cccccc1NCCCNc1cccccc1=O,> 100,–,> 100,> 100,> 100,> 100,> 100,> 100,> 100,> 100,–,–,–,–,–,–,–,–,–,–
Cc1ccc2nc3c(C(=O)NCCN(C)C)cccc3nc2c1,> 100,32.3,12,14,> 22.4,> 42.2,16.8,–,20.2,6.29,–,–,–,–,–,–,–,–,–,–
CCC[CH2][Sn]1([CH2]CCC)[O]C(=O)C(C(C)C)N=Cc2ccccc2[O]1 (stereo not given),3.14,1.88,1.78,> 100,0.442,> 100,0.693,–,1.98,1.04,1.59,–,0.6,0.547,3.79,0.648,0.236,> 100,0.244,0.131
O=C(CP(=O)(c1ccccc1)c1ccccc1)c1cccc(C(=O)CP(=O)(c2ccccc2)c2ccccc2)c1,> 100,> 100,> 100,> 100,–,> 100,> 100,> 100,> 100,> 100,–,–,–,–,–,–,–,–,–,–
COC(=O)C(=O)C(C(=O)C(=O)Nc1ccccc1C(N)=O)c1nc2ccc(Cl)cc2[nH]c1=O (stereo not given),> 100,> 100,> 100,–,> 100,> 100,> 100,> 100,> 100,> 100,–,–,–,–,–,–,–,–,–,–
NC(CC(=O)OCc1ccccc1)C(=O)OCc1ccccc1 (stereo not given),> 100,89.1,> 100,> 100,–,> 100,> 100,> 100,> 100,–,–,–,–,–,–,–,–,–,–,–
CCOC(=O)NC(=O)c1cn(CCOCCOC(=O)NCCCCCCNC(=O)OCCOCCn2cc(C(=O)NC(=O)OCC)c(=O)[nH]c2=O)c(=O)[nH]c1=O,> 100,> 100,> 100,> 100,> 100,> 100,> 100,–,> 100,–,–,–,–,–,–,–,–,–,–,–
COc1cc(NC(=O)c2cc(O)c(CC=C(C)C)c(O)c2)cc2c1O[C@]1(C)CC[C@@H](O)C(C)(C)[C@H]1C2,23.2,24.8,15.4,30.9,–,33.7,8.27,> 100,18.4,7.87,6.87,2.21,10.6,3.37,5.2,4.12,2.07,6.34,2.41,–
Cc1cc(S(=O)(=O)Nc2nc(N)nc(N3N=CCC3C)n2)c(SCC(=O)O)cc1Cl (stereo not given),> 10,> 10,> 10,> 10,–,> 10,> 10,> 10,> 10,> 10,–,–,–,–,–,–,–,–,–,–
Clc1nc(Cl)c2ncn(Cc3cccc(COc4cccc(OCc5cccc(Cn6cnc7c(Cl)nc(Cl)nc76)c5)c4)c3)c2n1,> 100,33.2,–,> 100,69.2,> 100,> 100,> 100,> 100,> 100,> 100,5.24,17.9,–,58.2,34.6,4.73,24.7,60,15.6
CN(C)c1ccc(N)cc1,52.6,21.2,8.44,–,7.91,19.7,16.8,–,12.2,–,4.58,–,4.44,2.67,–,3.25,–,3.24,4,2.3
O=C(O)CP(=S)(S)c1ccccc1 (stereo not given),> 100,–,–,> 100,> 100,> 100,> 100,> 100,> 100,> 100,–,–,–,–,–,–,–,–,–,–
